According to publication PMC8922281, “Synthesis and In Vitro Biological Evaluation of Quinolinyl Pyrimidines Targeting Type II NADH-Dehydrogenase (NDH-2)” (ACS Infectious Diseases, 2022):
In brackets after ≈: the same amount, converted by molar mass. Several values for one entry are separate records, joined by “and”; a condition that tells them apart may be missing. Identical values can stand only once. Like-named read-outs stand apart in the source and are kept apart here.

Legend:
MsNDH-2 = MsNDH-2 (Mycolicibacterium smegmatis, UniProt A0QYD6); test: Inhibition of MsNDH-2 (NADH oxidation with menadione, absorbance at 340 nm); type: biochemical, M. smegmatis
Sequence of MsNDH-2 (A0QYD6 1-457): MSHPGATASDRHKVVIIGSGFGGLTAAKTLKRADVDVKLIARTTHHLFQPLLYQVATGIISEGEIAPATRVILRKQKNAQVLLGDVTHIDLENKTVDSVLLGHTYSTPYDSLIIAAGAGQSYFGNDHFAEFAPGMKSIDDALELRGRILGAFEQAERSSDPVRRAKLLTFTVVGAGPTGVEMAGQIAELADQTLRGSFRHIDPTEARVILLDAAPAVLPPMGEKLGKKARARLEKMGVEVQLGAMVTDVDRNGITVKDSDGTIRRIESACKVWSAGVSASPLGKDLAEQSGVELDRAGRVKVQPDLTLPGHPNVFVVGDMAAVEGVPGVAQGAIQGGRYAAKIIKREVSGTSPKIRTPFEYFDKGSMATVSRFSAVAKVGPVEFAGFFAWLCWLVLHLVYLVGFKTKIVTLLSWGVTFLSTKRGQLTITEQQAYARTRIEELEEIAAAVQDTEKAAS

[1] = system: E. coli (D22, lpxC mutant, drug-hypersensitive); test: microbe, parasite or virus in culture; type: cell-based; details: Escherichia coli, read-out: MIC Ec D22
[2] = system: M. tuberculosis strain H37Rv (ATCC 25618); test: MIC on M. tuberculosis by resazurin reduction microplate assay (REMA); type: cell-based; details: Mycobacterium tuberculosis, M. tuberculosis H37Rv, read-out: MIC Mtb
[3] = system: A. baumannii (ATCC 19606, wild-type); test: MIC on ESKAPE pathogens, A. baumannii; type: cell-based; details: Acinetobacter baumannii, ATCC19606; A. baumannii ATCC 19606, wild-type; read-out: MIC Ab WT
[4] = system: K. pneumonia (ATCC 13833, wild-type); test: MIC on ESKAPE pathogens, K. pneumoniae
[5] = Cytotoxicity on the MRC-5 cell line (resazurin); type: cell-based; details: human, MRC-5SV2 cells, MRC-5SV2, 3 days
Experimental: MRC-5SV2 cells were cultured in Earl’s MEM + 5% FCSi. Assays were performed in 96-well microtiter plates, each well containing about 10^4 cells/well. After 3 days of incubation with or without compounds, cell viability was assessed fluorimetrically after the addition of resazurin (λex 550 nm, λem 590 nm). The results were expressed as % reduction in cell growth/viability compared to untreated control wells and CC50 was determined. Testing/retesting strategy was as described above for HepG2 cells.

[6] = system: E. coli (ΔtolC efflux-defective mutant, isogenic to ATCC 25922); test: microbe, parasite or virus in culture; type: cell-based; details: Escherichia coli, ATCC25922, read-out: MIC Ec ΔtolC
[7] = system: S. aureus (ATCC 29213, wild-type); test: MIC on ESKAPE pathogens, S. aureus; type: cell-based; details: Staphylococcus aureus, ATCC29213
[8] = system: P. aeruginosa (PAO1, wild-type); test: MIC on ESKAPE pathogens, P. aeruginosa wild-type; type: cell-based; details: Pseudomonas aeruginosa, PAO1, P. aeruginosa PAO1, wild-type; read-out: MIC Pa WT
[9] = system: E. coli (ATCC 25922, wild-type); test: MIC on ESKAPE pathogens, E. coli wild-type; type: cell-based; details: Escherichia coli, ATCC25922; E. coli ATCC 25922, wild-type; read-out: MIC Ec WT
[10] = system: P. aeruginosa (PAO750 efflux-defective mutant, isogenic to PAO1); test: microbe, parasite or virus in culture; type: cell-based; details: Pseudomonas aeruginosa, PAO1, read-out: MIC Pa efflux
MtNDH-2 = MtNDH-2 (Mycobacterium tuberculosis, UniProt P95160); test: biochemical; design: species or system M. tuberculosis; details: MtNDH-2 IC50
Sequence of MtNDH-2 (P95160 2-463, added parts left off): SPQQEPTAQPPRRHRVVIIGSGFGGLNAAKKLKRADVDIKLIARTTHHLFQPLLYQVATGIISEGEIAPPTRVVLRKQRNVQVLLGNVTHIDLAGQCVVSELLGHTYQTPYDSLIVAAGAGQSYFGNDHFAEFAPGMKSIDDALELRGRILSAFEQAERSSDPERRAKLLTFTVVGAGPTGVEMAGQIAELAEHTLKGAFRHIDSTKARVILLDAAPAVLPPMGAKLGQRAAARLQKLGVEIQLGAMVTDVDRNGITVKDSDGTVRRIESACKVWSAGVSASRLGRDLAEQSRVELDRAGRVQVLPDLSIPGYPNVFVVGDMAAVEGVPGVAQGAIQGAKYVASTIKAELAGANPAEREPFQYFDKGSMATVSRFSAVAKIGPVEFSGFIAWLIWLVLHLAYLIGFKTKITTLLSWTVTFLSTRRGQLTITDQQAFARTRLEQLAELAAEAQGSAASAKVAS

[11] = system: E. coli MG1655 ΔtolC resistant mutants; test: microbe, parasite or virus in culture; type: cell-based; details: for MIC: Escherichia coli
[12] = 95% confidence interval in parentheses, 50 nM enzyme, 50 μM menadione, >100: no significant inhibition at 100 μM
[13] = same IC50 given in μg/mL to assist comparisons with MICs

Row | SMILES | IC50 (MsNDH-2; [12]) | IC50 (MsNDH-2; [13]) | MIC [1] | MIC [2] | MIC [3] | MIC Kp WT [4] | IC50 at 3 days ([5]; resazurin) | IC50 at 3 days ([5]; value in parentheses) | MIC [6] | MIC [7] | MIC [8] | MIC [9] | MIC [10] | IC50 (MtNDH-2) | also measured
1 | NCC1CCN(c2cc(Nc3ccc4nc(-c5ccc(F)cc5)cc(N)c4c3)nc(N)n2)CC1 [Compound 8h, N^6-(2-Amino-6-(4-(aminomethyl)piperidin-1-yl)pyrimidin-4-yl)-2-(4-fluorophenyl)quinoline-4,6-diamine] | 6.9 µM | 6.98 µM | 8 mg/L (≈ 17.4 µM) | > 46 mg/L | > 128 mg/L | >128 mg/L | 8 µM | 3.7 mg/L | 16 mg/L (≈ 34.9 µM) | 32 mg/L (≈ 69.8 µM) | 4 mg/L (≈ 8.72 µM) | 64 mg/L (≈ 140 µM) | 8 mg/L (≈ 17.4 µM) |  | 
2 | CN(C)C1CCN(c2cc(Nc3ccc4nc(-c5ccc(F)cc5)cc(N)c4c3)nc(N)n2)CC1 [Compound 8f, N^6-(2-Amino-6-(4-(dimethylamino)piperidin-1-yl)pyrimidin-4-yl)-2-(4-fluorophenyl)quinoline-4,6-diamine] | > 100 µM | > 99.5 µM | 32 mg/L (≈ 67.7 µM) | 10.9 mg/L (≈ 23.1 µM) | > 128 mg/L | >128 mg/L |  |  | 32 mg/L (≈ 67.7 µM) | > 128 mg/L | 32 mg/L (≈ 67.7 µM) | > 128 mg/L |  | 5.6 µM and 5.5 µM | 
3 | Nc1nc(Nc2ccc3nc(-c4ccc(F)cc4)cc(N)c3c2)cc(N2CCC(O)CC2)n1 [Compound 8p, 1-(2-Amino-6-((4-amino-2-(4-fluorophenyl)quinolin-6-yl)amino)pyrimidin-4-yl)piperidin-4-ol] |  |  | 32 mg/L (≈ 71.8 µM) | 16.5 mg/L (≈ 37 µM) | 64 mg/L (≈ 144 µM) | >64 mg/L |  |  | 32 mg/L (≈ 71.8 µM) | 64 mg/L (≈ 144 µM) | > 64 mg/L | 64 mg/L (≈ 144 µM) | > 64 mg/L | 5.1 µM and 5.16 µM | 
4 | CN1CCN(c2cc(Nc3ccc4nc(-c5ccc(F)cc5)cc(N)c4c3)nc(N)n2)CC1 [Compound 8c, N^6-(2-Amino-6-(4-methylpiperazin-1-yl)pyrimidin-4-yl)-2-(4-fluorophenyl)quinoline-4,6-diamine] | 40 µM | 40.5 µM | 16 mg/L (≈ 36 µM) | 15.6 mg/L (≈ 35.1 µM) | > 128 mg/L | >128 mg/L |  |  | 16 mg/L (≈ 36 µM) | 128 mg/L (≈ 288 µM) | 64 mg/L (≈ 144 µM) | 128 mg/L (≈ 288 µM) | 16 mg/L (≈ 36 µM) | 6.2 µM and 6.3 µM | 
5 | Nc1cc(-c2ccc(F)cc2)nc2ccc(Nc3cc(Cl)ncn3)cc12 [Compound 14, N^6-(6-Chloropyrimidin-4-yl)-2-(4-fluorophenyl)quinoline-4,6-diamine] | 5.1 µM | 5.19 µM | 64 mg/L (≈ 175 µM) | 4.8 mg/L (≈ 13.1 µM) | > 64 mg/L | >64 mg/L |  |  | > 64 mg/L | 64 mg/L (≈ 175 µM) | > 64 mg/L | > 64 mg/L | > 64 mg/L | 1.5 µM | 
6 | Nc1nc(Nc2ccc3nc(-c4ccc(F)cc4)cc(N)c3c2)cc(N2CCNCC2)n1 [Compound 8a, N^6-(2-Amino-6-(piperazin-1-yl)pyrimidin-4-yl)-2-(4-fluorophenyl)quinoline-4,6-diamine] | 9.7 µM | 9.76 µM | 4 mg/L (≈ 9.29 µM) | > 43 mg/L | > 64 mg/L | >64 mg/L | 24 µM | 10 mg/L |  | 32 mg/L (≈ 74.3 µM) | 8 mg/L (≈ 18.6 µM) | 8 mg/L (≈ 18.6 µM) | 4 mg/L (≈ 9.29 µM) | 3.1 µM and 3.02 µM | MIC ([11]; MG1655, read-out: MIC mutant, mutant CH4954 raised against 8a, basS (pmrB) Glu121Lys waaY (rfaY) Asp160fs): 8 mg/L (≈ 18.6 µM); MIC ([11]; MG1655, read-out: MIC mutant, mutant CH4955 raised against 8a, basR (pmrA) Gly53Glu): 16 mg/L (≈ 37.2 µM); MIC ([11]; MG1655, read-out: MIC mutant, mutant CH4956 raised against 8a, basS (pmrB) Leu10Arg): 8 mg/L (≈ 18.6 µM); MIC ([11]; MG1655, read-out: MIC mutant, mutant CH4957 raised against 8a, asmA Asn295fs waaP (rfaP) Glu258 stop codon): 16 mg/L (≈ 37.2 µM); MIC ([11]; MG1655, read-out: MIC mutant, mutant CH5084 raised against 8a, basS (pmrB) Ala159Pro preB Ala13fs): 16 mg/L (≈ 37.2 µM); fold increase of MIC ([11]; mutant CH4954 vs parent E. coli MG1655 ΔtolC): 2; fold increase of MIC ([11]; mutant CH4955 vs parent E. coli MG1655 ΔtolC): 4; fold increase of MIC ([11]; mutant CH4956 vs parent E. coli MG1655 ΔtolC): 2; fold increase of MIC ([11]; mutant CH4957 vs parent E. coli MG1655 ΔtolC): 4; fold increase of MIC ([11]; mutant CH5084 vs parent E. coli MG1655 ΔtolC): 4
7 | Nc1nc(Cl)cc(Nc2ccc3nc(-c4ccc(F)cc4)cc(N)c3c2)n1 [Compound 7, N^6-(2-Amino-6-chloropyrimidin-4-yl)-2-(4-fluorophenyl)quinoline-4,6-diamine] | 3.1 µM | 3.15 µM | 16 mg/L (≈ 42 µM) | 4.7 mg/L (≈ 12.3 µM) | 2 mg/L (≈ 5.25 µM) | >128 mg/L | 1.1 µM | 0.4 mg/L | 64 mg/L (≈ 168 µM) | 4 mg/L (≈ 10.5 µM) | > 128 mg/L | > 128 mg/L | 16 mg/L (≈ 42 µM) |  | 
8 | Fc1ccc(-c2ccc3cc(Nc4cc(N5CCNCC5)ncn4)ccc3n2)cc1 [Compound 23, 2-(4-Fluorophenyl)-N-(6-(piperazin-1-yl)pyrimidin-4-yl)quinolin-6-amine] | 24 µM | 24 µM | 16 mg/L (≈ 40 µM) | 7.1 mg/L (≈ 17.7 µM) | 64 mg/L (≈ 160 µM) | 64 mg/L (≈ 160 µM) | 7.9 µM | 3.2 mg/L | 8 mg/L (≈ 20 µM) | 8 mg/L (≈ 20 µM) | > 64 mg/L | > 64 mg/L | 4 mg/L (≈ 9.99 µM) |  | 
9 | Nc1nc(Nc2ccc3nc(-c4ccc(F)cc4)cc(N)c3c2)cc(=O)[nH]1 [Compound 12, 2-Amino-6-((4-amino-2-(4-fluorophenyl)quinolin-6-yl)amino)pyrimidin-4(3H)-one] | > 20 µM | > 19.9 µM | 16 mg/L (≈ 44.2 µM) | 9.2 mg/L (≈ 25.4 µM) | 32 mg/L (≈ 88.3 µM) | 32 mg/L (≈ 88.3 µM) |  |  | 16 mg/L (≈ 44.2 µM) | 32 mg/L (≈ 88.3 µM) | > 64 mg/L | 32 mg/L (≈ 88.3 µM) | 32 mg/L (≈ 88.3 µM) | 1.5 µM and 1.49 µM | 
10 | Nc1nc(Nc2ccc3nc(-c4ccc(F)cc4)cc(N)c3c2)cc(N2CCCC(O)C2)n1 (stereo not drawn) [Compound 8o, 1-(2-Amino-6-((4-amino-2-(4-fluorophenyl)quinolin-6-yl)amino)pyrimidin-4-yl)piperidin-3-ol] |  |  | 16 mg/L (≈ 35.9 µM) | 10.2 mg/L (≈ 22.9 µM) | 32 mg/L (≈ 71.8 µM) | >64 mg/L |  |  | 16 mg/L (≈ 35.9 µM) | 64 mg/L (≈ 144 µM) | > 64 mg/L | 32 mg/L (≈ 71.8 µM) | 32 mg/L (≈ 71.8 µM) | 3.4 µM and 3.37 µM | 
11 | Nc1ccc2nc(-c3ccc(F)cc3)cc(N)c2c1 [Compound 6, 2-(4-Fluorophenyl)quinoline-4,6-diamine] |  |  | 64 mg/L (≈ 253 µM) | 12.5 mg/L (≈ 49.4 µM) | > 64 mg/L | >64 mg/L |  |  | > 64 mg/L | 64 mg/L (≈ 253 µM) | > 64 mg/L | > 64 mg/L | 64 mg/L (≈ 253 µM) | 1.2 µM and 1.18 µM | 
12 | Nc1nc(Nc2ccc3nc(-c4ccc(F)cc4)ccc3c2)cc(N2CCNCC2)n1 [Compound 21, N^4-(2-(4-Fluorophenyl)quinolin-6-yl)-6-(piperazin-1-yl)pyrimidine-2,4-diamine] | 32 µM | 31.3 µM | 16 mg/L (≈ 38.5 µM) | 22.3 mg/L (≈ 53.7 µM) | 32 mg/L (≈ 77 µM) | 64 mg/L (≈ 154 µM) | 8 µM | 3.3 mg/L | 8 mg/L (≈ 19.3 µM) | 8 mg/L (≈ 19.3 µM) | > 64 mg/L | 16 mg/L (≈ 38.5 µM) | 4 mg/L (≈ 9.63 µM) |  | 
13 | Nc1nc(Nc2ccc3nc(-c4ccc(F)cc4)cc(N)c3c2)cc(N2CCOCC2)n1 [Compound 8b, N^6-(2-Amino-6-morpholinopyrimidin-4-yl)-2-(4-fluorophenyl) quinoline-4,6-diamine] | > 100 µM | > 99.7 µM | 16 mg/L (≈ 37.1 µM) |  | 16 mg/L (≈ 37.1 µM) | 64 mg/L (≈ 148 µM) |  |  | 16 mg/L (≈ 37.1 µM) | 32 mg/L (≈ 74.2 µM) | ≥ 64 mg/L | 64 mg/L (≈ 148 µM) | 32 mg/L (≈ 74.2 µM) |  | 
